Source: patent EP0383591B1, “Use of 5-methyl-1-phenyl-2-(1H)-pyridone in the prevention of fibrotic lesions” (Yamauchi, Shitotomo, priority 1989, dated 1990)
Values joined by “and” are separate entries in the source; they are usually repeats but may differ in a detail not shown here. Equal values may be shown once. Marks after values point to notes of the source that are not given here.

Assays:
[1] = tested on: Asbestos-Induced Pulmonary Interstitial Fibrosis; experiment: Effect of oral 5MP2P upon asbestos-induced pulmonary interstitial fibrosis in hamsters; type: in vivo; design: key to Pulmonary Fibrosis Scores Light Microscope (individual animal) / Pulmonary Fibrosis Scores Electron Microscope (individual animal): 0 = normal tissue; 1 = minimal; 2 = moderate; 3 = severe
From the text: In hamsters, pulmonary fibrosis induced with crysotile asbestos was removed following oral 5MP2P (cf. Table 4).
The novel role of 5MP2P in the therapeutic repair of fibrotic lung tissue featuring removal of fibrotic lesions, and concomitant regeneration of normal lung tissue has been observed in experimental asbestosis by histopathological examination of lung tissue specimens under the light microscope, and electron microscopy (Table 4).
This was subsequently confirmed by ashing of lung specimens in a laboratory oven, and then determining the asbestos content.

[2] = tested on: fibrosis (interstitial hyperplasia); experiment: Histopathological examination of the lungs of rats for fibrosis after 5MP2P in the diet; type: in vivo
Description: The results of a histopathological examination of the lungs of rats for fibrosis (interstitial hyperplasia) after receiving 300 mg/kg body of 5MP2P in the diet for three months are summarized in Table 2. The individual microscopic readings of the lung are also shown in Table 2, a score schedule of 0, 1, 2 and 3 reflects the degree of fibrosis.
The data in […] reveal a statistically significant reduction in amount of fibrosis in rats receiving 5MP2P as compared to placebo control rats (Group 1). The mean score for the controls (Group 1) was 1.63 + 0.23, and for Group IV (5MP2P, 300 mg/kg body weight daily) was 0.95 + 0.23.
Student's T value was 2.43, with P less than 0.02 (highly significant statistically).

[3] = tested on: Pulmonary Interstitial Hyperplasia (Fibrosis); experiment: Effect of oral 5MP2P upon pulmonary interstitial hyperplasia in dogs; type: in vivo, Beagle dogs
Description: The mean score for Group I (Control) was 2.11 + 0.31, and for Group IV, which received 5MP2P, 150 mg/kg per day orally in capsules, was 0.22 + 0.15.

[4] = Acute toxicity (LD50); settings: in vivo
From the text: The acute toxicity of the ingredient in the medical composition of the present invention which exerts the anti-fibrotic activity is as shown in the table below.

[5] = tested on: Pulmonary Interstitial Hyperplasia (Fibrosis); experiment: Effect of oral 5MP2P upon pulmonary interstitial hyperplasia in dogs; type: in vivo, Beagle dogs; settings: for Hyperplasia Scores 0 (number of dogs): 0 = normal tissue; for Hyperplasia Scores 1 (number of dogs): 1 = minimal; for Hyperplasia Scores 2 (number of dogs): 2 = moderate; for Hyperplasia Scores 3 (number of dogs): 3 = severe; for Incidence of Normal Lung / Average Scores (hyperplasia): dogs; for Incidence of Normal Lung: control 0/9; for Average Scores (hyperplasia): score 0-3, control 2.11+0.31
[6] = hamsters, Group III: asbestos by inhalation for 5 days, 5MP2P 500 MG/KG/day orally in the diet for two months, beginning two months after exposure
[7] = 300 mg/kg in the diet for three months, 19 animals

Cc1ccc(=O)n(-c2ccccc2)c1 [5MP2P, 5-Methyl-1-phenyl-2-(1H)-pyridone]
recurrence of asbestos-induced fibrosis ([1]; after 5MP2P had been discontinued for two months): did not recur
lung cell-imbedded asbestos fibers ([1]; electron microscope, confirmed by ashing of lung specimens and determining the asbestos content): had been removed
Pulmonary Fibrosis Scores Lung Density, Average ([1]; hamsters, Group III, 500 MG/KG/day in the diet for two months, asbestos without 5MP2P 2.53+0.23, no asbestos 1.00+0.05): 1.17+0.10**
Pulmonary Fibrosis Scores Electron Microscope, Average ([1]; hamsters, Group III, 500 MG/KG/day in the diet for two months, asbestos without 5MP2P 2.75+0.25, no asbestos 0.25+0.25): 0.25+0.25**
Pulmonary Fibrosis Scores Light Microscope, Average ([1]; hamsters, Group III, 500 MG/KG/day in the diet for two months, asbestos without 5MP2P 2.75+0.25, no asbestos 0.50+0.25): 1.00+0.41**
Pulmonary Fibrosis Scores Electron Microscope (individual animal) [1, 6]: 0 (3×) and 1
Pulmonary Fibrosis Scores Light Microscope (individual animal) [1, 6]: 0 and 2 and 1 (2×)
Pulmonary Fibrosis Scores Lung Density (individual animal) [1, 6]: 0.98 and 1.04 and 1.26 and 1.41
pulmonary fibrosis induced with crysotile asbestos ([1]; hamsters, oral 5MP2P): removed
Lung Connective Tissue Score 0, Total (number of animals) [2, 7]: 5
Lung Connective Tissue Score 1, Total (number of animals) [2, 7]: 11
Lung Connective Tissue Score 2, Total (number of animals) [2, 7]: 2
Lung Connective Tissue Score 3, Total (number of animals) [2, 7]: 1
Lung Connective Tissue Score, Mean ([2]; Group IV, 300 mg/kg body weight daily in the diet for three months, score schedule 0-3, control mean 1.63, P<0.02, 300 mg/kg): 0.95 ± 0.23 and 0.95
Hyperplasia Scores 0 (number of dogs) ([3]; 150 MG/KG/day, 9 dogs, 0 = normal tissue): 7
Hyperplasia Scores 1 (number of dogs) ([3]; 150 MG/KG/day, 9 dogs, 1 = minimal): 2
Incidence of Normal Lung ([3]; dogs, 150 MG/KG/day oral, control 0/9): 7/9
LD50 ([4]; ip, Guinea pig): 460 ± 28 mg/kg
LD50 ([4]; ip, Mouse): 600 ± 43 mg/kg
LD50 ([4]; ip, Rat): 430 ± 29 mg/kg
LD50 ([4]; iv, Cat): 40 mg/kg
LD50 ([4]; iv, Dog): 200 mg/kg
LD50 ([4]; iv, Monkey): 100 mg/kg
LD50 ([4]; iv, Mouse): 285 ± 5 mg/kg
LD50 ([4]; iv, Rabbit): 280 ± 32 mg/kg
LD50 ([4]; po, Cat): 500 mg/kg
LD50 ([4]; po, Dog): 300 mg/kg
LD50 ([4]; po, Guinea pig): 810 ± 25 mg/kg
LD50 ([4]; po, Mouse): 998 mg/kg
LD50 ([4]; po, Rat female): 2300 mg/kg
LD50 ([4]; po, Rat male): 1300 mg/kg
Hyperplasia Scores 0 (number of dogs) ([5]; 25 MG/KG/day, 6 dogs): 1
Hyperplasia Scores 1 (number of dogs) ([5]; 25 MG/KG/day, 6 dogs): 1
Hyperplasia Scores 2 (number of dogs) ([5]; 25 MG/KG/day, 6 dogs): 4
Hyperplasia Scores 3 (number of dogs) ([5]; 25 MG/KG/day, 6 dogs): 0
Hyperplasia Scores 0 (number of dogs) ([5]; 75 MG/KG/day, 8 dogs): 2
Hyperplasia Scores 1 (number of dogs) ([5]; 75 MG/KG/day, 8 dogs): 2
Hyperplasia Scores 2 (number of dogs) ([5]; 75 MG/KG/day, 8 dogs): 3
Hyperplasia Scores 3 (number of dogs) ([5]; 75 MG/KG/day, 8 dogs): 1
Hyperplasia Scores 2 (number of dogs) ([5]; 150 MG/KG/day, 9 dogs): 0
Hyperplasia Scores 3 (number of dogs) ([5]; 150 MG/KG/day, 9 dogs): 0
Incidence of Normal Lung ([5]; 25 MG/KG/day oral): 1/6
Incidence of Normal Lung ([5]; 75 MG/KG/day oral): 2/8
Average Scores (hyperplasia) ([5]; Group II, 25 MG/KG/day oral): 1.50+0.34
Average Scores (hyperplasia) ([5]; Group III, 75 MG/KG/day oral): 1.38+0.38
